Data reported in patent US12187709B2 (Genentech, Inc., priority 2021, dated 2025).

Experiments:
[1] = biological target: c-Cbl (Homo sapiens (Human), UniProt P22681); assay: C-Cbl LCK Ub TR-FRET assay (C-cbl Lck HTRF); format: biochemical
Procedure, shortened: (§1)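 Detection reagents added, brief spin, 20 min RT. IC50 fit normalized to no-LCK (low) and DMSO (high) controls.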

[2] = biological target: c-Cbl (residues 47-435) (Homo sapiens (Human), UniProt P22681); assay: c-Cbl SPR assay; format: binding; details: 20° C.
Sequence of c-Cbl (residues 47-435) (P22681 47-435): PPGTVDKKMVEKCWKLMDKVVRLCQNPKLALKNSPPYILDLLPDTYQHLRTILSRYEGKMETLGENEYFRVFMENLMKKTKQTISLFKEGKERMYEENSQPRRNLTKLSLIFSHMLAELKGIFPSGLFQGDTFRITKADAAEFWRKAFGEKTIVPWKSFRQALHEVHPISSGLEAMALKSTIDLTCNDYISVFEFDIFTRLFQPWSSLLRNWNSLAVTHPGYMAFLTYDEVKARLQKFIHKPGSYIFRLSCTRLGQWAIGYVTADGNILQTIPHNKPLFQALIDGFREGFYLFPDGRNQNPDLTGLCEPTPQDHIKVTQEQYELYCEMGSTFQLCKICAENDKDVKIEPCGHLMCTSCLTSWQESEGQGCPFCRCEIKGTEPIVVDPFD
Procedure: Affinity of binding to Cbl-b and c-Cbl for compounds described herein was assessed by surface plasmon resonance (SPR) according to the following protocol.
A surface capture range of 1300-1500 RU of protein was used for both isoforms.
For SPR measurements, 6 concentrations with 2 fold serial dilution were measured with blanks flanking each series for double referencing. […] SPR sensorgrams were recorded in multi-cycle kinetics format, with a contact time of 60 seconds and a flow rate of 40 μl/min, the dissociation time was varied between 120-1200 seconds aiming for 4-5 half-lives of the measured interaction.
Kinetic and affinity parameters were extracted from the multicycle kinetics data fitting to a 1:1 binding model using the Biacore™ Incyte evaluation software (Cytiva).
Chaser assay utilize a single cycle kinetics SPR experiment with a contact time of 120 seconds, a flow rate of 50 μl/min and a dissociation time of 450 seconds. Single cycle kinetics titration utilized an initial blank injection and 5 concentrations with 2 fold serial dilution with a maximum concentration of 500 nM, blanked to a preceding 6 point blank single cycle kinetics injection for double referencing.
The kd is measured independently by determining the percentage unoccupied compound binding site over time by measuring the binding of a chaser compound measured by SPR.
Chaser binding was measured by a multicycle kinetics SPR experiment using a contact time of 20 seconds, a flow rate of 30 μl/min, and a dissociation time of 120 seconds. […] The % compound bound at a given time was determined by comparison to a single injection of chaser preceding the single cycle kinetics titration defined below. % Compound Bound=(1−(RUT/RUT0))*100
The % compound bound is plotted against time in seconds and fit to a single exponential, where the exponent represents the kd of the compound-protein complex. The single cycle kinetics experiment of the compound is then fit with a fixed kd determined using the chaser.

[3] = biological target: Human Cbl-b (residues 40-426) (Homo sapiens (Human), UniProt Q13191); assay: Cbl-b SPR assay; format: binding; details: for Fold of selectivity: C-cbl SPR Kd vs Cbl-b SPR Kd; for Kd: SPR, 20° C.
Sequence of Human Cbl-b (residues 40-426) (Q13191 40-426): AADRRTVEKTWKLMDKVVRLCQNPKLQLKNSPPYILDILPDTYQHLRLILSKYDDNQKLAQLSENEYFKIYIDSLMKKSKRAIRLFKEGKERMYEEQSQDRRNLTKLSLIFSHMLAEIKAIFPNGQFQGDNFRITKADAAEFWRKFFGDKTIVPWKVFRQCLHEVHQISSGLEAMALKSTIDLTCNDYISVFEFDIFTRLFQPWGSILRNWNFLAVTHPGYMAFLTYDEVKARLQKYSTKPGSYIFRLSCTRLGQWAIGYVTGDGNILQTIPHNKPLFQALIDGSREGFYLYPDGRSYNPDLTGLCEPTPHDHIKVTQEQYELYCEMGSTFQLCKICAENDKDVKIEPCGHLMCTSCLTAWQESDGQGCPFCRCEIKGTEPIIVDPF
Procedure, shortened: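 Captured protein (1300-1500 RU for both isoforms) was probed in multi-cycle kinetics with 6 concentrations in 2-fold dilution, 60 s contact, 40 μl/min, dissociation 120-1200 s, double-referenced. Kinetic and affinity parameters came from a 1:1 binding fit. For slow off-rates, kd was set independently by a chaser-based method.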

[4] = biological target: Cbl-b (Homo sapiens (Human), UniProt Q13191); assay: Cbl-b LCK Ub TR-FRET assay (Cbl-b Lck HTRF); format: biochemical; details: for IC50: Cbl-b LCK Ub TR-FRET; for fold-selectivity (Cbl-b over C-cbl): ratio C-cbl Lck HTRF IC50 / Cbl-b Lck HTRF IC50
Sequence of Cbl-b (Q13191 40-426): as above
Procedure, shortened: as §1

Sequence of c-Cbl (P22681 47-435): as the sequence (P22681 47-435) above

IC50 [1] [nM]	Kd [2] [nM]	Fold of selectivity [3] [×]	Kd [3] [nM]	IC50 [4] [nM]	fold-selectivity (Cbl-b over C-cbl) [4] [x]	SMILES
5.7	1.6	5.3	0.3	5.5	1.0	Cn1cnnc1[C@@H](c1cccc(N2Cc3c(cc(CNC4(C)CCC4)cc3C(F)(F)F)C2=O)c1)C1CC(F)C1 (single isomer, unassigned) [Compound 130]
5600	4500	16	280	740	7.4	COC1CC([C@H](c2cccc(N3Cc4c(cc(CNC5(C)CCC5)cc4C(F)(F)F)C3=O)c2)c2nncn2C)C1 (single isomer, unassigned) [Compound 131]
4800	5600	15	360	600	8.0	COC1CC([C@H](c2cccc(N3Cc4c(cc(CNC5(C)CCC5)cc4C(F)(F)F)C3=O)c2)c2nncn2C)C1 (single isomer, unassigned) [Compound 132]
730	660	7.7	83	150	4.9	COC1CC([C@@H](c2cccc(N3Cc4c(cc(CNC5(C)CCC5)cc4C(F)(F)F)C3=O)c2)c2nncn2C)C1 (single isomer, unassigned) [Compound 133]
17	13	6.6	1.9	9.8	1.8	COC1CC([C@@H](c2cccc(N3Cc4c(cc(CNC5(C)CCC5)cc4C(F)(F)F)C3=O)c2)c2nncn2C)C1 (single isomer, unassigned) [Compound 134]
69	63	4.9	13	37	1.9	Cc1cnnn1[C@@H](c1cccc(N2Cc3c(cc(CNC4(C)CCC4)cc3C(F)(F)F)C2=O)c1)C1COC1 (single isomer, unassigned) [Compound 135]
1300	1000	4.6	220	350	3.6	Cn1cnnc1[C@@H](c1cccc(N2Cc3c(cc(CNC4(C)CCC4)cc3C(F)(F)F)C2=O)c1)[C@H]1C[C@H](C#N)C1 (single isomer, unassigned) [Compound 139]
1500	850	0.88	980	830	1.9	Cn1cnnc1[C@@H](c1cccc(N2Cc3c(cc(CNC4(C)CCC4)cc3C(F)(F)F)C2=O)c1)[C@H]1C[C@@H](C#N)C1 (single isomer, unassigned) [Compound 140]
12	9.4	5.1	1.9	7.6	1.6	Cn1cnnc1[C@H](c1cccc(N2Cc3c(cc(CNC4(C)CCC4)cc3C(F)(F)F)C2=O)c1)[C@H]1C[C@@H](C#N)C1 (single isomer, unassigned) [Compound 141]
350	1300	3.8	370	200	1.8	Cn1cnnc1[C@H](c1cccc(N2Cc3c(cc(CNC4(C)CCC4)cc3C(F)(F)F)C2=O)c1)[C@H]1C[C@H](C#N)C1 (single isomer, unassigned) [Compound 142]
190	220	4.3	58	62	3.1	Cn1cnnc1[C@@](O)(c1cccc(N2Cc3c(cc(CNC4(C)CCC4)cc3C(F)(F)F)C2=O)c1)C1COC1 (single isomer, unassigned) [Compound 143]
29	42	9.6	3.6	13	2.2	Cn1cnnc1[C@H](c1cccc(N2Cc3c(cc(CNC4(C)CCC4)cc3C(F)(F)F)C2=O)c1)C1(O)COC1 (single isomer, unassigned) [Compound 147]
44	63	6.7	9.3	9.9	4.4	Cn1cnnc1C1(c2cccc(N3Cc4c(cc([C@H](CO)NC5(C)CCC5)cc4C(F)(F)F)C3=O)c2)CCC1 (single isomer, unassigned) [Compound 148]
4.1	1.4	4.7	0.3	4.9	0.82	Cn1cnnc1C1(c2cccc(N3Cc4c(cc([C@@H](CO)NC5(C)CCC5)cc4C(F)(F)F)C3=O)c2)CCC1 (single isomer, unassigned) [Compound 149]
13	28	8.5	2.9	9.1	1.4	Cn1cnnc1C(F)(c1cccc(N2Cc3c(cc(CNC4(C)CCC4)cc3C(F)(F)F)C2=O)c1)C1COC1 (single isomer, unassigned) [Compound 150]
52	59	6.5	8.7	18	2.9	Cn1cnnc1[C@@H](c1cc(F)cc(N2Cc3c(cc(CNC4(C)CCC4)cc3C(F)(F)F)C2=O)c1)C1COC1 (single isomer, unassigned) [Compound 152]
5300	1000	0.76	1300	1300	3.9	Cn1cnnc1[C@]1(c2cccc(N3Cc4c(cc(CNC5(C)CCC5)cc4C(F)(F)F)C3=O)c2)C[C@@H]([S@+](C)[O-])C1 (single isomer, unassigned) [Compound 160]
4300	3000	6.6	460	600	7.2	Cn1cnnc1[C@]1(c2cccc(N3Cc4c(cc(CNC5(C)CCC5)cc4C(F)(F)F)C3=O)c2)C[C@H]([S@@+](C)[O-])C1 (single isomer, unassigned) [Compound 161]
18	14	7.0	1.9	8.9	2.0	Cn1cnnc1[C@@H](c1cccc(N2Cc3c(cc(CNC4(C)CCC4)cc3C(F)(F)F)C2=O)c1)C1COC1 (single isomer, unassigned) [Compound 164]
7200	3800	5.3	710	1900	3.8	COC[C@@H]1CC1(c1cccc(N2Cc3c(cc(CNC4(C)CCC4)cc3C(F)(F)F)C2=O)c1)c1nncn1C (single isomer, unassigned) [Compound 166]
6400	5200	5.8	910	1400	4.7	COC[C@H]1CC1(c1cccc(N2Cc3c(cc(CNC4(C)CCC4)cc3C(F)(F)F)C2=O)c1)c1nncn1C (single isomer, unassigned) [Compound 167]
12	15	2.8	4.9	12	1.0	C[C@H](c1cccc(N2Cc3c(cc(CNC4(C)CCC4)cc3C(F)(F)F)C2=O)c1)c1nncn1C (single isomer, unassigned) [Compound 170]
2300	1700	2.1	800	1100	2.0	C[C@@H](c1cccc(N2Cc3c(cc(CNC4(C)CCC4)cc3C(F)(F)F)C2=O)c1)c1nncn1C (single isomer, unassigned) [Compound 171, 2-(3-(1-(4-methyl-4H-1,2,4-triazol-3-yl)ethyl)phenyl)-6-(((1-methylcyclobutyl)amino)methyl)-4-(trifluoromethyl)isoindolin-1-one]
